Source: US20230339970A1, “CASEIN KINASE 1 DELTA MODULATORS” (priority 2020, published 2023)

Tests used:
[1] = target: T1, human recombinant GST cleaved CSNK1D (Homo sapiens, UniProt P48730); experiment: Purified Enzyme Assay (ADP-Glo CSNK1D Kinase Assay); format: biochemical; details: 2 nM CSNK1D; peptide substrate 150 μM; ATP 20 μM; 45 minutes at room temperature
T1 construct: GST (cleaved yes); purchased University of Dundee clone DU 19064
Summary of the method: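 GST-cleaved human recombinant CSNK1D phosphorylates peptide PLSRTL-pS-VASLPGL with ATP; compounds added in dose-response, 45 min at room temperature. ADP formed measured by ADP-Glo luminescence and converted to percent activity.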

human CSNK1D = target: T2, human CSNK1D (Homo sapiens, UniProt P48730); experiment: Whole Cell nBRET CSNK1D Binding Assay; details: living CHO cells stably expressing human CSNK1D tagged with nanoluciferase; NanoBret tracer 130 nM; 2 hours at 37 C
T2 construct: expressed in transfected cells
T2 sequence (P48730 whole entry): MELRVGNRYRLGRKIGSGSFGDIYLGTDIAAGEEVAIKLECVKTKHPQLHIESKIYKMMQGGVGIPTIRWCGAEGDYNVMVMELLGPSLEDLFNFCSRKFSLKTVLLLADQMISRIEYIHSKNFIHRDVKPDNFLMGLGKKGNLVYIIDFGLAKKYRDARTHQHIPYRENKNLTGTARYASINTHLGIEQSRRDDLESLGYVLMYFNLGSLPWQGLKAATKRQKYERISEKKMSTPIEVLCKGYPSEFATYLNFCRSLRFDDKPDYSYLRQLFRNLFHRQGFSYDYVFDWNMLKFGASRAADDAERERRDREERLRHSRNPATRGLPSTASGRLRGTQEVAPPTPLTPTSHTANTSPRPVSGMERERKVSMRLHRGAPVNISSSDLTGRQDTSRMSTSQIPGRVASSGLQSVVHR

T1 sequence (P48730 whole entry): as above

Row | IC50 [1] [nM] | IC50 (human CSNK1D) [nM] | Compound
1 | 2 | 17 | [2H]C([2H])([2H])C1(C([2H])([2H])[2H])Cn2nc(-c3ccc(F)cc3)c(-c3nc(C)nc4[nH]ncc34)c2CO1 [Example 410, 2-(4-Fluorophenyl)-6,6-bis(methyl-d3)-3-(6-methyl-1H-pyrazolo[3,4-d]pyrimidin-4-yl)-6,7-dihydro-4H-pyrazolo[5,1-c][1,4]oxazine]
2 | 4 | 54 | CC1(C)CCc2c(-c3ccnc(N)c3)c(-c3ccc(F)cn3)nn2C1 [Example 281, 4-[2-(5-Fluoro-2-pyridyl)-6,6-dimethyl-5,7-dihydro-4H-pyrazolo[1,5-a]pyridin-3-yl]pyridin-2-amine]
3 | 306 | > 10000 | Cc1n[nH]c2nccc(-c3c(-c4ccc(F)cc4)nn4c3COC(C(F)(F)F)C4)c12 (single isomer, unassigned) [Example 373, (*R)-2-(4-Fluorophenyl)-3-(3-methyl-1H-pyrazolo[3,4-b]pyridin-4-yl)-6-(trifluoromethyl)-6,7-dihydro-4H-pyrazolo[5,1-c][1,4]oxazine]
4 | 1 | 3 | CC(=O)Nc1cc(-c2c(-c3ccc(F)cc3)nn3c2CCC2C3C2(F)F)ccn1 (racemic) [Example 348, N-(4-(6,6-Difluoro-2-(4-fluorophenyl)-5,5a,6,6a-tetrahydro-4H-cyclopropa[e]pyrazolo[1,5-a]pyridin-3-yl)pyridin-2-yl)acetamide]
5 | 7 | 26 | CC1(C)Cn2nc(-c3ccc(F)cn3)c(-c3c(F)cnc4[nH]nc(Cl)c34)c2CO1 [Example 392, 3-(3-Chloro-5-fluoro-1H-pyrazolo[3,4-b]pyridin-4-yl)-2-(5-fluoropyridin-2-yl)-6,6-dimethyl-6,7-dihydro-4H-pyrazolo[5,1-c][1,4]oxazine]
6 | 3 | 25 | CC1(C)Cn2nc(-c3ccc(F)cn3)c(-c3ccnc4[nH]nc(Br)c34)c2CO1 [Example 152, 3-(3-Bromo-1H-pyrazolo[3,4-b]pyridin-4-yl)-2-(5-fluoropyridin-2-yl)-6,6-dimethyl-6,7-dihydro-4H-pyrazolo[5,1-c][1,4]oxazine]
7 | 5 | 102 | Cc1cc(-c2c(-c3ccc(F)cc3)nn3c2[C@@H]2CC[C@H]3C2)c2cn[nH]c2n1 (single isomer, unassigned) [Example 364, (4*R,7*S)-2-(4-Fluorophenyl)-3-(6-methyl-1H-pyrazolo[3,4-b]pyridin-4-yl)-4,5,6,7-tetrahydro-4,7-methanopyrazolo[1,5-a]pyridine]
8 | 14 | 353 | Cc1cc(-c2c(-c3ccc(F)cn3)nn3c2CC[C@H]3C)c2cn[nH]c2n1 [Example 21, 4-[(6R)-2-(5-Fluoro-2-pyridyl)-6-methyl-5,6-dihydro-4H-pyrrolo[1,2-b]pyrazol-3-yl]-6-methyl-1H-pyrazolo[3,4-b]pyridine]
9 | 49 | 1170 | Fc1ccc(-c2nn3c(c2-c2ccnc4[nH]ncc24)CO[C@H](C2CCC2)C3)nc1 (single isomer, unassigned) [Example 110, (*R)-6-Cyclobutyl-2-(5-fluoropyridin-2-yl)-3-(1H-pyrazolo[3,4-b]pyridin-4-yl)-6,7-dihydro-4H-pyrazolo[5,1-c][1,4]oxazine]
10 | 67 | 1570 | [2H]C([2H])([2H])[C@]1(C(F)(F)F)Cn2nc(-c3ccc(F)cn3)c(-c3ccnc4[nH]ncc34)c2CO1 (single isomer, unassigned) [Example 423, (*R)-2-(5-Fluoropyridin-2-yl)-6-(methyl-d3)-3-(1H-pyrazolo[3,4-b]pyridin-4-yl)-6-(trifluoromethyl)-6,7-dihydro-4H-pyrazolo[5,1-c][1,4]oxazine]
11 | 119 | 2300 | Cc1cnc(N)cc1-c1c(-c2ccc(F)cn2)nn2c1COC(C)(C)C2 [Example 378, 4-(2-(5-Fluoropyridin-2-yl)-6,6-dimethyl-6,7-dihydro-4H-pyrazolo[5,1-c][1,4]oxazin-3-yl)-5-methylpyridin-2-amine]
12 | 2 | 4 | [2H]C([2H])([2H])C1(C([2H])([2H])[2H])Cc2c(-c3cc(C)nc4[nH]ncc34)c(-c3ccc(F)cc3)nn2C1 [Example 242, 4-[2-(4-Fluorophenyl)-5,5-bis(methyl-d3)-4,6-dihydropyrrolo[1,2-b]pyrazol-3-yl]-6-methyl-1H-pyrazolo[3,4-b]pyridine]
13 | 2 | 13 | Fc1ccc(-c2nn3c(c2-c2ccnc4[nH]ncc24)CC2(CC2)C3)cc1 [Example 247, 2-(4-Fluorophenyl)-3-(1H-pyrazolo[3,4-b]pyridin-4-yl)spiro[4,6-dihydropyrrolo[1,2-b]pyrazole-5,1′-cyclopropane]]
14 | 5 | 58 | Cc1cc(-c2c(-c3ccc(F)cc3)nn3c2C(C)(C)CC3)c2cn[nH]c2n1 [Example 246, 4-[2-(4-Fluorophenyl)-4,4-dimethyl-5,6-dihydropyrrolo[1,2-b]pyrazol-3-yl]-6-methyl-1H-pyrazolo[3,4-b]pyridine]
15 | 3 | 44 | C[C@@]1(C(F)(F)F)Cn2nc(-c3ccc(F)cn3)c(-c3ccnc4[nH]ncc34)c2CO1 (single isomer, unassigned) [Example 177, (*S)-2-(5-Fluoropyridin-2-yl)-6-methyl-3-(1H-pyrazolo[3,4-b]pyridin-4-yl)-6-(trifluoromethyl)-6,7-dihydro-4H-pyrazolo[5,1-c][1,4]oxazine]
16 | < 0.5 | 1 | CC1(C)COc2c(-c3ccnc4[nH]ncc34)c(-c3ccc(F)cc3)nn2C1 [Example 212, 2-(4-Fluorophenyl)-6,6-dimethyl-3-(1H-pyrazolo[3,4-b]pyridin-4-yl)-6,7-dihydro-5H-pyrazolo[5,1-b][1,3]oxazine]
17 | 27 | 75 | CC1(C(F)(F)F)Cn2nc(-c3ccc(F)cc3)c(-c3ccn4nccc4c3)c2CO1 (single isomer, unassigned) [Example 413, (*S)-2-(4-Fluorophenyl)-6-methyl-3-(pyrazolo[1,5-a]pyridin-5-yl)-6-(trifluoromethyl)-6,7-dihydro-4H-pyrazolo[5,1-c][1,4]oxazine]
18 | 50 | 1300 | CC(=O)Nc1cc(-c2c(-c3ccc(F)cn3)nn3c2CC[C@@H]2[C@H]3C2(F)F)ccn1 (stereo in doubt) [Example 352, N-(4-((5a*R,6a*S)-6,6-Difluoro-2-(5-fluoropyridin-2-yl)-5,5a,6,6a-tetrahydro-4H-cyclopropa[e]pyrazolo[1,5-a]pyridin-3-yl)pyridin-2-yl)acetamide]
19 | 8 | 192 | C[C@H]1CCc2c(-c3ccnc4[nH]ncc34)c(-c3ccc(F)cn3)nn21 [Example 19, 4-[(6S)-2-(5-Fluoro-2-pyridyl)-6-methyl-5,6-dihydro-4H-pyrrolo[1,2-b]pyrazol-3-yl]-1H-pyrazolo[3,4-b]pyridine]
20 | 2 | 21 | Cc1cc(-c2c(-c3ccc(F)cc3)nn3c2COCC3)c2cn[nH]c2n1 [Example 71, 2-(4-Fluorophenyl)-3-(6-methyl-1H-pyrazolo[3,4-b]pyridin-4-yl)-6,7-dihydro-4H-pyrazolo[5,1-c][1,4]oxazine]
21 | 10 | 297 | Cc1cc(-c2c(-c3ccc(F)cc3)nn3c2COC[C@@H]3C)c2cn[nH]c2n1 (single isomer, unassigned) [Example 93, (*S)-2-(4-Fluorophenyl)-7-methyl-3-(6-methyl-1H-pyrazolo[3,4-b]pyridin-4-yl)-6,7-dihydro-4H-pyrazolo[5,1-c][1,4]oxazine]
22 | 2 | 11 | CC1(C)COc2c(-c3ccnc4cn[nH]c34)c(-c3ccc(F)cc3)nn2C1 [Example 453, 2-(4-Fluorophenyl)-6,6-dimethyl-3-(1H-pyrazolo[4,3-b]pyridin-7-yl)-5,7-dihydropyrazolo[5,1-b][1,3]oxazine]
23 | 4 | 85 | Fc1ccc(-c2nn3c(c2-c2ccnc4[nH]ncc24)CC2(C3)CC2(F)F)nc1 (single isomer, unassigned) [Example 254, (*S)-1′1l′-Difluoro-2-(5-fluoro-2-pyridyl)-3-(1H-pyrazolo[3,4-b]pyridin-4-yl)spiro[4,6-dihydropyrrolo[1,2-b]pyrazole-5,2′-cyclopropane]]
24 | 165 | 8290 | Fc1ccc(-c2nn3c(c2-c2ccnc4[nH]ncc24)COC2(C3)CC2(F)F)nc1 (single isomer, unassigned) [Example 434, (*S)-1′. 1′-Difluoro-2-(5-fluoro-2-pyridyl)-3-(1H-pyrazolo[3,4-b]pyridin-4-yl)spiro[4,7-dihydropyrazolo[5,1-c][1,4]oxazine-6,2′-cyclopropane]]
25 | 28 | 762 | Cc1cc(-c2c(-c3nccs3)nn3c2CCCC3)c2cn[nH]c2n1 [Example 30, 2-(3-(6-Methyl-1H-pyrazolo[3,4-b]pyridin-4-yl)-4,5,6,7-tetrahydropyrazolo[1,5-a]pyridin-2-yl)thiazole]
26 | 4 | 81 | CC1(CF)CCc2c(-c3ccnc(N)c3)c(-c3ccc(F)cn3)nn2C1 (single isomer, unassigned) [Example 286, (*S)-4-[6-(Fluoromethyl)-2-(5-fluoro-2-pyridyl)-6-methyl-5,7-dihydro-4H-pyrazolo[1,5-a]pyridin-3-yl]pyridin-2-amine]

Row | Compound | IC50 [1] [nM] | IC50 (human CSNK1D) [nM]
27 | CC1(C)CCc2c(-c3ccnc4[nH]ncc34)c(-c3ccc(F)cn3)nn2C1 [Example 49, 4-[2-(5-Fluoro-2-pyridyl)-6,6-dimethyl-5,7-dihydro-4H-pyrazolo[1,5-a]pyridin-3-yl]-1H-pyrazolo[3,4-b]pyridine] | 1 | 11
